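In this assay, cells in 96-well plates receive the compound at five concentrations for 48 hours. Endpoints are linearly interpolated between the surrounding concentrations. TGI denotes the concentration required for complete inhibition of growth.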
What was measured:
Assay in all cases: DTP human tumour cell line panel, 48 h
[1] = tested on: SK-MEL-28 melanoma
[2] = tested on: CAKI-1 renal
[3] = tested on: EKVX NSCLC
[4] = tested on: SF-539 CNS
[5] = tested on: SR leukemia
[6] = tested on: HCC-2998 colon
[7] = tested on: OVCAR-8 ovarian
[8] = tested on: MDA-MB-435
[9] = tested on: UACC-257 melanoma
[10] = tested on: NCI-H460 lung

SMILES	TGI [1] [µM]	TGI [2] [µM]	TGI [3] [µM]	TGI [4] [µM]	TGI [5] [µM]	TGI [6] [µM]	TGI [7] [µM]	TGI [8] [µM]	TGI [9] [µM]	TGI [10] [µM]
CCOC(=O)c1c(N2CCOCC2)[nH]c(=O)c(C(c2ccc(OC)cc2)c2c(O)c(C(=O)OCC)c(N3CCOCC3)[nH]c2=O)c1O	> 100	> 100	> 100	> 100	> 100	> 100	> 100	> 100	> 100	> 100
CC#CC(O)(C(=O)OC1CCCN(C)C1)C1=CC=CCC1 (stereo not drawn)	> 100	> 100	> 100	> 100	> 100	> 100	> 100	> 100	> 100	> 100
CCOC(=O)C(Cc1ccccc1)(Cc1ccc(O)cn1)NC(=O)c1ccccc1 (stereo not drawn)	> 100	87	> 100	60.6	> 100	> 100	> 100	30.1	95	99.2
O=C1OS2(OCc3cccc4cccc2c34)c2ccccc21 (stereo not drawn)	> 100	> 100	> 100	> 100	> 100	> 100	–	> 100	> 100	> 100
CC1(C)C2CC(c3ccncc3)ON2C(C)(C)N1O (stereo not drawn)	> 100	> 100	> 100	> 100	> 100	> 100	> 100	> 100	> 100	> 100
CSC(=NC1=NC(C(F)(F)F)(C(F)(F)F)N=C(c2ccccc2)O1)SC	> 100	44.8	42.3	> 100	76.1	39.6	> 100	55	60.5	> 100
N#CCCN(CCCN(C(=O)Nc1ccccc1)c1ccccc1)C(=O)Nc1ccccc1	> 100	28.6	> 100	> 100	> 100	> 100	> 100	> 100	> 100	> 100
Cc1ccc(S(=O)(=O)N2CCN(CCN(C)CCN3CCN(S(=O)(=O)c4ccc(C)cc4)CC3)CC2)cc1	31.4	40.5	55.2	30.3	36.3	29.4	32.7	32	30.5	32.2
CC1(C)[C@@H]2C[C@H]1c1cnc(-c3ccccn3)cc1C2[C@@H]1c2cc(-c3ccccn3)ncc2[C@@H]2C[C@H]1C2(C)C (stereo partly drawn)	> 100	> 100	> 100	–	> 100	> 100	> 100	> 100	> 100	> 100

Reference: PubChem BioAssay (NCI)
